ChEMBL document CHEMBL1146010, “Synthesis and in vitro antimycobacterial activity of N1-nicotinoyl-3-(4'-hydroxy-3'-methyl phenyl)-5-[(sub)phenyl]-2-pyrazolines” (2006)
≈ marks a conversion by molar mass, not a printed value.

What follows are molecules tested on Mycobacterium tuberculosis (assay: Antimycobacterial activity against isoniazid-resistant Mycobacterium tuberculosis by agar dilution method).
Type: functional
In the case of `COc1ccc(C2CC(c3ccc(O)c(C)c3)=NN2C(=O)c2ccncc2)c(OC)c1OC` (configuration not stated), the MIC was 0.87 µM (≈ 0.389 µg/mL).
`Cc1cc(C2=NN(C(=O)c3ccncc3)C(c3ccc(Cl)cc3)C2)ccc1O` (configuration not stated) was tested, and the MIC was 3.98 µM (≈ 1.56 µg/mL).
In the case of `Cc1cc(C2=NN(C(=O)c3ccncc3)C(c3ccccc3Cl)C2)ccc1O` (configuration not stated), the MIC was 0.26 µM (≈ 0.102 µg/mL).
Work on `Cc1cc(C2=NN(C(=O)c3ccncc3)C(c3cccc([N+](=O)[O-])c3)C2)ccc1O` (configuration not stated) yielded an MIC of 7.75 µM (≈ 3.12 µg/mL).
Work on `COc1ccc(C2CC(c3ccc(O)c(C)c3)=NN2C(=O)c2ccncc2)cc1` (configuration not stated) yielded an MIC of 8.05 µM (≈ 3.12 µg/mL).
`COc1ccc(C2CC(c3ccc(O)c(C)c3)=NN2C(=O)c2ccncc2)cc1OC` (configuration not stated) showed an MIC of 0.93 µM (≈ 0.388 µg/mL).
`Cc1cc(C2=NN(C(=O)c3ccncc3)C(c3ccco3)C2)ccc1O` (configuration not stated) gave an MIC of 0.58 µM (≈ 0.201 µg/mL).
`Cc1cc(C2=NN(C(=O)c3ccncc3)C(c3ccc(F)cc3)C2)ccc1O` (configuration not stated) gave an MIC of 0.54 µM (≈ 0.203 µg/mL).
`NNC(=O)c1ccncc1` [ISONIAZID] was tested, and the MIC was 11.4 µM (≈ 1.56 µg/mL).
`Cc1cc(C2=NN(C(=O)c3ccncc3)C(c3ccccc3)C2)ccc1O` (configuration not stated) gave an MIC of 4.36 µM (≈ 1.56 µg/mL).
In the case of `Cc1cc(C2=NN(C(=O)c3ccncc3)C(c3ccc(N(C)C)cc3)C2)ccc1O` (configuration not stated), the MIC was 1.95 µM (≈ 0.781 µg/mL).
With `Cc1cc(C2=NN(C(=O)c3ccncc3)C(c3c(Cl)cccc3Cl)C2)ccc1O` (configuration not stated) the MIC was 0.23 µM (≈ 0.098 µg/mL).
